Here are results for five molecules from patent US5500424A, “Pyrimidine and pyridine derivatives, their production and use” (Nihon Nohyaku Co., Ltd., priority 1993, dated 1996).

The target of test [1] is T1, acyl-CoA:cholesterol acyltransferase (ACAT) (Oryctolagus cuniculus, UniProt G1SFD9).
T1 construct: The intestinal mucosa of a white rabbit was homogenized and microsomal fraction was obtained; from tissue; host or cells: white rabbit intestinal mucosa, microsomal fraction
T1 sequence (G1SFD9 1-524): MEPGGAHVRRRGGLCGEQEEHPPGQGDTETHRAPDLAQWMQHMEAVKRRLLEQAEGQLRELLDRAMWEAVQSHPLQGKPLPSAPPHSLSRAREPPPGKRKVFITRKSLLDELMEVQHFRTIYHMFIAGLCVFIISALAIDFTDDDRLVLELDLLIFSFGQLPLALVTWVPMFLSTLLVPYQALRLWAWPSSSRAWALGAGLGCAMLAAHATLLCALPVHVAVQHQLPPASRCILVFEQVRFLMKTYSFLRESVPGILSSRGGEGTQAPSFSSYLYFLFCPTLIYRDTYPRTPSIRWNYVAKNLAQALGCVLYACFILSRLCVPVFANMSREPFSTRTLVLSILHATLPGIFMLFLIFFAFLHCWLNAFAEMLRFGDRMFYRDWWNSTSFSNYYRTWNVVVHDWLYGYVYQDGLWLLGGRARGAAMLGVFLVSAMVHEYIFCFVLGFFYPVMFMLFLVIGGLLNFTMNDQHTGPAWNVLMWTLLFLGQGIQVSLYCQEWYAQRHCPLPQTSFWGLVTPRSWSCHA
Kind of test: Inhibitory activity on acyl-CoA:cholesterol acyltransferase (ACAT). The class given is biochemical, white rabbit. The settings on record: rabbit intestinal mucosa microsomes, read-out: Inhibition rate. The method, then:
Inhibitory activity on acyl-CoA:cholesterol acyltransferase (ACAT)
The enzyme used in the test was prepared according to the method of Heider et al. [J. Lipid, Res. 24, 1127 (1983)]. The intestinal mucosa of a white rabbit was homogenized and microsomal fraction was obtained by stepwise centrifugation. The microsomal fraction was suspended in 0.154M phosphate buffer (pH 7.4) and stored at -80° C. until use.
ACAT activity was determined by a modification of the method of Helgerud et al. [J. Lipid Res. 22, 271 (1981)] by measuring radioactivity incorporated into cholesterol esters from [1-^14 C]oleyl-CoA, as an indication. As to the ACAT-inhibitory activity of each compound to be tested, the inhibition rate was calculated by the following equation. [formula]

In test [2] the test system is hamsters fed on a high-cholesterol diet. Kind of test: Serum cholesterol lowering activity in hamsters fed on a high-cholesterol diet. Type of test: in vivo, Male Syrian hamsters. The settings on record: Mesocricetus auratus, 30 mg/kg per day for 4 days, 24 hours after last administration, read-out: Reduction rate of total serum cholesterol concentration. The method, then: Serum cholesterol lowering activity in hamsters fed on a high-cholesterol diet
Male Syrian hamsters of 10-week-old were divided into three groups. The first group (normal group) was fed an ordinary diet for 4 days. The second group (control group) was fed a high cholesterol diet (containing 0.5% cholesterol and 8.0% coconut oil) for 4 days. The third group (treated group) was fed a high cholesterol diet and was treated with a compound for 4 days. Simultaneously with the beginning of the above feeding, the compound was suspended in a 0.5% carboxymethyl cellulose solution and administered to the treated group, in a dose of 30 mg (in terms of the compound) per kg of body weight per day for 4 days. A 0.5% carboxymethyl cellulose solution was also administered to the normal group and the control group in the same manner as above.
After 24 hours of the last administration, blood was collected and the cholesterol concentration in serum was measured by an enzymatic method. The reduction rate of the total serum cholesterol concentration was calculated from values obtained for the three groups by the following equation. [formula] wherein A: the serum cholesterol concentration of the control group.
B: the serum cholesterol concentration of the treated group.
C: the serum cholesterol concentration of the normal group.

Test [3] relates to cholesterol esterification in macrophages (J774 A.I cells). Kind of test: Inhibitory effect on cholesterol esterification in macrophages. The class given is cell-based. The settings on record: Mus musculus, AcLDL-loaded J774 A.I cells, read-out: Inhibition rate. The method, then:
Inhibitory effect on cholesterol esterification in macrophages
The test was carried out by a modification of the method of Goldstein et al. [Pro. Nat. Acad. Sci. U.S.A. 71, 4288 (1974)]. J774 A.I cells, the mouse macrophage-like cell line, were suspended in Dulbecco's modified Eagle's medium (DMEM) containing 10% fetal calf serum (FCS), in a proportion of 3×10^5 cells per 2 ml and were seeded into 6-well plates. The cells were cultured under a humidified atmosphere of 95% air/5% CO2 at 37° C. for 24 hours. The medium was replaced by 1 ml of DMEM containing 10% of FCS and 50 μg/ml of acetylated human low density lipoprotein (AcLDL), followed by culturing for 16 hours. Five microliters of each compound dissolved in dimethyl sulfoxide was added to the medium, and the cells were cultured for another 2 hours. Then, [^14 C]oleate (2×10^6 dpm/well) bovine serum albumin complex was added in the medium. After 2 hours of culture, cells were collected and the cholesterol-esterifying activity was determined by measuring radioactivity incorporated into cholesterol esters in the cells. The recovery of the cholesterol esters was determined by the addition of [^3 H]cholesteryl oleate, and the esterifying activity was corrected using the recovery. As to the inhibitory activity on cholesterol esterification of the compound to be tested, the inhibition rate was calculated by the following equation. [formula] wherein A: the cholesterol-esterifying activity of AcLDL-loaded cells to which the compound to be tested was added.
B: the cholesterol-esterifying activity of AcLDL-loaded cells to which dimethyl sulfoxide was added.

As to `CC(C)c1cccc(C(C)C)c1NC(=O)Nc1cnc(-c2ccccc2)nc1-c1ccccc1` [Compound 32, N-(2,6-Diisopropylphenyl)-N'-(2,4-diphenylpyrimidin-5-yl)urea], the inhibition at 0.01 µM in test [1] amounted to 73.5%. The inhibition in vivo at 30 mg/kg in test [2] was determined as 63.7%. Besides, in test [3], the inhibition at 0.3 µM amounted to 58% and the inhibition at 1 µM is 74.3%.

On to `CCc1cccc(CC)c1NC(=O)Nc1cnc(N2CCCCC2)nc1-c1ccccc1Cl` [Compound 55, N-[4-(2-Chlorophenyl)-2-(N-piperidino)pyrimidin-5-yl]-N'-(2,6-diethylphenyl)urea], for which, in test [1], the inhibition at 0.01 µM turned out to be 75.7%. For the same molecule, the inhibition in vivo at 30 mg/kg in test [2] was 77.5%. Moreover, the inhibition at 0.3 µM in test [3] was 34.9%.

Consider `Cc1ccccc1-c1nc(-c2ccccc2)ncc1NC(=O)Nc1c(C(C)C)cccc1C(C)C` [Compound 36, N-(2,6-Diisopropylphenyl)-N'-[4-(2-methylphenyl)-2-phenylpyrimidin-5-yl]urea], for which the inhibition at 0.01 µM in test [1] stood at 72.9%. Moreover, the inhibition in vivo at 30 mg/kg in test [2] came to 63.4%. The inhibition at 0.3 µM in test [3] stood at 51.6%.

With `CCc1cccc(CC)c1NC(=O)Nc1cnc(-c2ccccc2)nc1-c1ccccc1C(F)(F)F` [Compound 37, N-(2,6-Diethylphenyl)-N'-[2-phenyl-4-(2-trifluoromethylphenyl)pyrimidin-5-yl]urea], the inhibition at 0.01 µM in test [1] stood at 72.3%. The inhibition in vivo at 30 mg/kg in test [2] came to 63.3%. For the same molecule, in test [3], the inhibition at 0.3 µM was determined as 67.1% and the inhibition at 1 µM was 87.2%.

Turning to `CC(C)c1cccc(C(C)C)c1NC(=O)Nc1cnc(-c2ccccc2)nc1-c1ccccc1Cl` [Compound 15, N-[4-(2-Chlorophenyl)-2-phenylpyrimidin-5-yl]-N'-(2,6-diisopropylphenyl)urea], the inhibition at 0.01 µM in test [1] came to 67.6%. Also, the values for the inhibition at 1 µM in test [1] (1 μM) and in test [3] were 99.5% and 73.3%, respectively. Besides, the inhibition in vivo at 30 mg/kg in test [2] stood at 57.6%. The inhibition at 0.3 µM in test [3] is 29.5%.

Broadly, the inhibition is the percentage by which the read-out fell short of the control.
